Experimental data from the supplement of paper PMC10307832.

Key:
Test in all cases: relative viability (nuclei count vs DMSO), 5 days (fraction); higher = more cells survive
[1] = tested on: NCI-H2126
How it was run: (§1)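 A single step with final 0.05% Triton X-100, 1% formaldehyde and 1 ug/ml Hoechst fixed the cells and stained nuclei 5 days after treatment. Lung cancer cell lines in 1536-well plates had been treated by pin tool the day after seeding with one drug alone or a fixed anchor-drug dose plus five library-drug doses (not always all listed) in √10 steps, and nuclei were counted on 4× images. Relative viability is the ratio of nuclei in treated wells to nuclei in vehicle wells, taken as the median of duplicate plates.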

[2] = tested on: LCLC-103H
How it was run: as §1

[3] = tested on: HOP-62
How it was run: as §1

[4] = tested on: NCI-H441
How it was run: as §1

[5] = tested on: NCI-H1993
How it was run: as §1

[6] = tested on: HCC-827
How it was run: as §1

[7] = tested on: SK-MES-1
How it was run: as §1

[8] = tested on: BEN
How it was run: as §1

[9] = tested on: ChaGo-K-1
How it was run: as §1

[10] = tested on: LXF-289
How it was run: as §1

[11] = tested on: NCI-H661
How it was run: as §1

[12] = tested on: PC-14
How it was run: as §1

[13] = tested on: LOU-NH91
How it was run: as §1

[14] = tested on: NCI-H647
How it was run: as §1

[15] = tested on: NCI-H1355
How it was run: as §1

[16] = tested on: NCI-H1437
How it was run: as §1

[17] = tested on: NCI-H2170
How it was run: as §1

[18] = tested on: NCI-H1944
How it was run: as §1

[19] = tested on: LK-2
How it was run: as §1

[20] = tested on: RERF-LC-KJ
How it was run: as §1

[21] = tested on: NCI-H1666
How it was run: as §1

[22] = tested on: EKVX
How it was run: as §1

SMILES: Cc1csc(=NC2CCCCC2)n1/N=C/c1ccc(O)c(O)c1O [MIM1] + Nc1nc2[nH]cc(CCc3ccc(C(=O)N[C@@H](CCC(=O)O)C(=O)O)cc3)c2c(=O)[nH]1 [Pemetrexed] (partner 0.2 µM)
- relative viability ([1]; first compound 0.2 µM): 0.643
- relative viability ([1]; first compound 0.6325 µM): 0.67
- relative viability ([1]; first compound 2 µM): 0.675
- relative viability ([1]; first compound 6.325 µM): 0.563
- relative viability ([1]; first compound 20 µM): 0.399
- relative viability ([2]; first compound 0.2 µM): 0.413
- relative viability ([2]; first compound 0.6325 µM): 0.499
- relative viability ([2]; first compound 2 µM): 0.456
- relative viability ([2]; first compound 6.325 µM): 0.466
- relative viability ([2]; first compound 20 µM): 0.393
- relative viability ([3]; first compound 0.2 µM): 0.362
- relative viability ([3]; first compound 0.6325 µM): 0.34
- relative viability ([3]; first compound 2 µM): 0.385
- relative viability ([3]; first compound 6.325 µM): 0.328
- relative viability ([3]; first compound 20 µM): 0.127
- relative viability ([4]; first compound 0.2 µM): 0.259
- relative viability ([4]; first compound 0.6325 µM): 0.27
- relative viability ([4]; first compound 2 µM): 0.256
- relative viability ([4]; first compound 6.325 µM): 0.232
- relative viability ([4]; first compound 20 µM): 0.159
- relative viability ([5]; first compound 0.2 µM): 0.572
- relative viability ([5]; first compound 0.6325 µM): 0.553
- relative viability ([5]; first compound 2 µM): 0.596
- relative viability ([5]; first compound 6.325 µM): 0.481
- relative viability ([5]; first compound 20 µM): 0.384
- relative viability ([6]; first compound 0.2 µM): 0.275
- relative viability ([6]; first compound 0.6325 µM): 0.249
- relative viability ([6]; first compound 2 µM): 0.263
- relative viability ([6]; first compound 6.325 µM): 0.246
- relative viability ([6]; first compound 20 µM): 0.167
- relative viability ([7]; first compound 0.2 µM): 0.962
- relative viability ([7]; first compound 0.6325 µM): 0.907
- relative viability ([7]; first compound 2 µM): 0.796
- relative viability ([7]; first compound 6.325 µM): 0.56
- relative viability ([7]; first compound 20 µM): 0.298
- relative viability ([8]; first compound 0.2 µM): 0.792
- relative viability ([8]; first compound 0.6325 µM): 0.751
- relative viability ([8]; first compound 2 µM): 0.705
- relative viability ([8]; first compound 6.325 µM): 0.709
- relative viability ([8]; first compound 20 µM): 0.34
- relative viability ([9]; first compound 0.2 µM): 0.255
- relative viability ([9]; first compound 0.6325 µM): 0.269
- relative viability ([9]; first compound 2 µM): 0.263
- relative viability ([9]; first compound 6.325 µM): 0.257
- relative viability ([9]; first compound 20 µM): 0.189
- relative viability ([10]; first compound 0.2 µM): 0.9
- relative viability ([10]; first compound 0.6325 µM): 0.737
- relative viability ([10]; first compound 2 µM): 0.891
- relative viability ([10]; first compound 6.325 µM): 0.715
- relative viability ([10]; first compound 20 µM): 0.453
- relative viability ([11]; first compound 0.2 µM): 0.676
- relative viability ([11]; first compound 0.6325 µM): 0.908
- relative viability ([11]; first compound 2 µM): 0.975
- relative viability ([11]; first compound 6.325 µM): 0.651
- relative viability ([11]; first compound 20 µM): 0.562
- relative viability ([12]; first compound 0.2 µM): 0.137
- relative viability ([12]; first compound 0.6325 µM): 0.124
- relative viability ([12]; first compound 2 µM): 0.151
- relative viability ([12]; first compound 6.325 µM): 0.156
- relative viability ([12]; first compound 20 µM): 0.111
- relative viability ([13]; first compound 0.2 µM): 0.335
- relative viability ([13]; first compound 0.6325 µM): 0.466
- relative viability ([13]; first compound 2 µM): 0.383
- relative viability ([13]; first compound 6.325 µM): 0.403
- relative viability ([13]; first compound 20 µM): 0.285
- relative viability ([14]; first compound 0.2 µM): 0.187
- relative viability ([14]; first compound 0.6325 µM): 0.186
- relative viability ([14]; first compound 2 µM): 0.178
- relative viability ([14]; first compound 6.325 µM): 0.162
- relative viability ([14]; first compound 20 µM): 0.117
- relative viability ([15]; first compound 0.2 µM): 1.05
- relative viability ([15]; first compound 0.6325 µM): 0.932
- relative viability ([15]; first compound 2 µM): 1.07
- relative viability ([15]; first compound 6.325 µM): 0.863
- relative viability ([15]; first compound 20 µM): 0.616
- relative viability ([16]; first compound 0.2 µM): 0.29
- relative viability ([16]; first compound 0.6325 µM): 0.317
- relative viability ([16]; first compound 2 µM): 0.348
- relative viability ([16]; first compound 6.325 µM): 0.235
- relative viability ([16]; first compound 20 µM): 0.154
- relative viability ([17]; first compound 0.2 µM): 0.265
- relative viability ([17]; first compound 0.6325 µM): 0.252
- relative viability ([17]; first compound 2 µM): 0.247
- relative viability ([17]; first compound 6.325 µM): 0.254
- relative viability ([17]; first compound 20 µM): 0.215
- relative viability ([18]; first compound 0.2 µM): 0.586
- relative viability ([18]; first compound 0.6325 µM): 0.613
- relative viability ([18]; first compound 2 µM): 0.478
- relative viability ([18]; first compound 6.325 µM): 0.381
- relative viability ([18]; first compound 20 µM): 0.233
- relative viability ([19]; first compound 0.2 µM): 0.276
- relative viability ([19]; first compound 0.6325 µM): 0.298
- relative viability ([19]; first compound 2 µM): 0.197
- relative viability ([19]; first compound 6.325 µM): 0.272
- relative viability ([19]; first compound 20 µM): 0.218
- relative viability ([20]; first compound 0.2 µM): 0.47
- relative viability ([20]; first compound 0.6325 µM): 0.466
- relative viability ([20]; first compound 2 µM): 0.369
- relative viability ([20]; first compound 6.325 µM): 0.361
- relative viability ([20]; first compound 20 µM): 0.165
- relative viability ([21]; first compound 0.2 µM): 0.853
- relative viability ([21]; first compound 0.6325 µM): 0.848
- relative viability ([21]; first compound 2 µM): 0.826
- relative viability ([21]; first compound 6.325 µM): 0.666
- relative viability ([21]; first compound 20 µM): 0.627
- relative viability ([22]; first compound 0.2 µM): 0.374
- relative viability ([22]; first compound 0.6325 µM): 0.392
- relative viability ([22]; first compound 2 µM): 0.318
- relative viability ([22]; first compound 6.325 µM): 0.287
- relative viability ([22]; first compound 20 µM): 0.29
